Here are results for 5 molecules from PMC7822115 (Viruses, 2020).

SMILES strings stand for the structures. Where two headings read alike, the source gives them in different places. Bounds are passed on as bounds.

Data set [1] is described as follows: in vitro. The settings on record: African green monkey.
For data set [2] the following is noted: in vivo; cited from earlier work.
Data set [3] relates to SARS-CoV-2. The data set can be described thus: microbe, parasite or virus in culture. The class given is cell-based. Particulars: for EC50: Severe acute respiratory syndrome coronavirus 2, Vero, 48 h, read-out: EC50 (95% CI).
A further data set has as its system Vero cells. Particulars: African green monkey.
A short description of data set [4]: in vitro. The settings on record: human.
The subject of data set [5] is SARS-CoV-2. The data set can be described thus: microbe, parasite or virus in culture. In kind it is cell-based.
The test system of another data set is MERS-CoV. Put plainly: microbe, parasite or virus in culture. In kind it is cell-based. Particulars: Middle East respiratory syndrome-related coronavirus, Vero, 48 h, read-out: EC50 (95% CI).

Molecule `COc1c(N2C[C@@H]3CCCN[C@@H]3C2)c(F)cc2c(=O)c(C(=O)O)cn(C3CC3)c12` [Moxifloxacin, moxifloxacin] displayed a CC50 in the data set “in vitro [1]” above 600 µM. For the same molecule, the “Peak human serum concentration” value in data set [2] was 8.6 µM. Further, in the data set with SARS-CoV-2 [3], the “SARS-CoV-2 titer after treatment (in words)” value (“SARS-CoV-2 titer … (in words)” below) is “below the level of detection” and the 50% effective concentration (EC50) was 240 µM. In addition, in the data set with A549/ACE2 cells (human), the “Concentration at which cellular toxicity was detected” value is at least 300 µM. The “Concentration at which cellular toxicity was observed” value in the data set with Vero cells was at least 300 µM. In the data set “in vitro [4]”, this molecule had a CC50 above 600 µM. In the data set with SARS-CoV-2 [5], the “Decrease in mean SARS-CoV-2 titer compared to the control” value was found to be 2.2 log and the “SARS-CoV-2 titer … (in words)” value is given as “below the level of detection”.
As to `C[C@H]1COc2c(N3CCN(C)CC3)c(F)cc3c(=O)c(C(=O)O)cn1c23` [Levofloxacin, levofloxacin], the CC50 in the data set “in vitro [1]” and in “in vitro [4]” was above 600 µM each time. Also, the EC50 in the data set on SARS-CoV-2 [3] was found to be 419 µM. Moreover, the “Decrease in mean SARS-CoV-2 titer compared to the control” value in the data set with SARS-CoV-2 [5] is 1.4 log.
On to `O=C(Nc1ccc([N+](=O)[O-])cc1Cl)c1cc(Cl)ccc1O` [niclosamide], for which the “SARS-CoV-2 replication after treatment (in words)” value in the data set on SARS-CoV-2 [3] and in the data set on SARS-CoV-2 [5] was “below the level of detection” throughout.
Take `CCn1cc(C(=O)O)c(=O)c2cc(F)c(N3CCNCC3)nc21` [Enoxacin, enoxacin]: the CC50 in “in vitro [1]” and in the data set “in vitro [4]” was above 600 µM throughout. Moreover, in data set [2], the “Peak human serum concentration” value was 11.2 µM. The EC50 in the data set on SARS-CoV-2 [3] worked out at 126 µM; in the data set with SARS-CoV-2 [5] (Severe acute respiratory syndrome coronavirus 2, A549-ACE2, 48 h, read-out: EC50 (95% CI)) it was 227 µM; in the data set with MERS-CoV, 343 µM. The “Cellular viability / toxicity compared to the media control (in words)” value with A549/ACE2 cells was “not different from the media control”. In addition, in the data set on Vero cells, the “Concentration at which cellular toxicity was observed” value was at least 37.5 µM.
For `O=C(O)c1cn(C2CC2)c2cc(N3CCNCC3)c(F)cc2c1=O` [Ciprofloxacin, ciprofloxacin], in data set [2], the “Peak human serum concentration” value was 7.2 µM. For the same molecule, in the data set with SARS-CoV-2 [3], the “SARS-CoV-2 titer … (in words)” value is recorded as “below the level of detection” and the EC50 came out at 247 µM.
